According to US20240383904A1, “HETEROCYCLIC COMPOUNDS” (Hoffmann-La Roche Inc., priority 2021, published 2024):

Target: T1, MAGL (Homo sapiens, UniProt Q99685)
T1 sequence (Q99685 1-303): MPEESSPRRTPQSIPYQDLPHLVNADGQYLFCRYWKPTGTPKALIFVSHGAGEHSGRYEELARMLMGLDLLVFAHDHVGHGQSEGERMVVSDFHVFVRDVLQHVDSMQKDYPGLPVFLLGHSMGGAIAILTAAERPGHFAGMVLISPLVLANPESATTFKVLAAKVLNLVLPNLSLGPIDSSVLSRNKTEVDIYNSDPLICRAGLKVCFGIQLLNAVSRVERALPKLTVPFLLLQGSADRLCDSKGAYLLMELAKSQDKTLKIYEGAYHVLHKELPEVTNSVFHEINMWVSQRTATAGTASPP
Assay: 2-AG assay: MAGL inhibitory activity by hydrolysis of 2-arachidonoylglycerol to arachidonic acid, followed by mass spectrometry
Type: biochemical
Conditions: 15 min preincubation, 30 min reaction at RT, 8 μM 2-arachidonoylglycerol

SMILES | IC50 [nM]
O=C1COCC2(CN(C(=O)N3CC4(CC(Cc5cnc(C(F)(F)F)nc5)C4)C3)C2)N1 [Example 232, 2-[6-[[2-(trifluoromethyl)pyrimi-din-5-yl]methyl]-2-azaspiro[3.3]heptane-2-carbonyl]-8-oxa-2,5-diazaspiro[3.5]nonan-6-one] | 230
O=C1COCC2(CN(C(=O)N3CC4(CCN(Cc5ccc(S(=O)(=O)C(F)(F)F)cc5)C4)C3)C2)N1 [Example 233, 2-[7-[[4-(trifluoromethylsulfonyl)phenyl]methyl]-2,7-diazaspiro[3.4]octane-2-carbonyl]-8-oxa-2,5-diazaspiro[3.5]nonan-6-one] | 265
O=C1COCC2(CN(C(=O)N3CC4(CC[C@@H](Cc5ccc(S(=O)(=O)C(F)(F)F)cc5)C4)C3)C2)N1 [Example 234, 2-[(6S)-6-[[4-(trifluoromethylsulfonyl)phenyl]methyl]-2-azaspiro[3.4]octane-2-carbonyl]-8-oxa-2,5-diazaspiro[3.5]nonan-6-one] | 8.49
O=C1COCC2(CN(C(=O)N3CC4(CC[C@H](Cc5ccc(S(=O)(=O)C(F)(F)F)cc5)C4)C3)C2)N1 [Example 235, 2-[(6R)-6-[[4-(trifluoromethylsulfonyl)phenyl]methyl]-2-azaspiro[3.4]octane-2-carbonyl]-8-oxa-2,5-diazaspiro[3.5]nonan-6-one] | 7.35
O=C1COCC2(CN(C(=O)N3CC4(CC[C@@H](Cc5cccc(S(=O)(=O)C(F)(F)F)c5)C4)C3)C2)N1 [Example 236, 2-[(6S)-6-[[3-(trifluoromethylsulfonyl)phenyl]methyl]-2-azaspiro[3.4]octane-2-carobnyl]-8-oxa-2,5-diazaspiro[3.5]nonan-6-one] | 2.16
O=C1COCC2(CN(C(=O)N3CC4(CC[C@H](Cc5cccc(S(=O)(=O)C(F)(F)F)c5)C4)C3)C2)N1 [Example 237, 2-[(6R)-6-[[3-(trifluoromethylsulfonyl)phenyl]methyl]-2-azaspiro[3.4]octane-2-carbonyl]-8-oxa-2,5-diazaspiro[3.5]nonan-6-one] | 3.15
CS(=O)(=O)c1cc(CC2CC3(C2)CN(C(=O)N2CC4(COCC(=O)N4)C2)C3)cc(C(F)(F)F)c1 [Example 238, 2-[6-[[3-methylsulfonyl-5-(trifluoromethyl)phenyl]methyl]-2-azaspiro[3.3]heptane-2-carbonyl]-8-oxa-2,5-diazaspiro[3.5]nonan-6-one] | 16.5
O=C1COCC2(CN(C(=O)N3CC4(CC(Cn5ccc(C(F)(F)F)n5)C4)C3)C2)N1 [Example 239, 2-[6-[[3-(trifluoromethyl)pyrazol-1-yl]methyl]-2-azaspiro[3.3]heptane-2-carbonyl]-8-oxa-2,5-diazaspiro[3.5]nonan-6-one] | 52.8
O=C1COCC2(CN(C(=O)N3CC4(CCN(Cc5ccc(C(F)(F)F)nc5)C4)C3)C2)N1 [Example 240, 2-[7-[[6-(trifluoromethyl)-3-pyridyl]methyl]-2,7-diazaspiro[3.4]octane-2-carbonyl]-8-oxa-2,5-diazaspiro[3.5]nonan-6-one] | 1240
O=C1COCC2(CN(C(=O)N3CC4(CCN(Cc5ccc(C(F)(F)F)cn5)C4)C3)C2)N1 [Example 241, 2-[7-[[5-(trifluoromethyl)-2-pyridyl]methyl]-2,7-diazaspiro[3.4]octane-2-carbonyl]-8-oxa-2,5-diazaspiro[3.5]nonan-6-one] | 928
N#Cc1cc(C(F)(F)F)ccc1CC1CC2(C1)CN(C(=O)N1CC3(COC(=O)N3)C1)C2 [Example 242, 2-[[2-(6-oxo-7-oxa-2,5-diazaspiro[3.4]octane-2-carbonyl)-2-azaspiro[3.3]heptan-6-y]methyl]-5-(trifluoroemthyl)benzoni-trile] | 0.06
N#Cc1cc(CC2CC3(C2)CN(C(=O)N2CC4(COC(=O)N4)C2)C3)cnc1C(F)(F)F [Example 243, 5-[[2-(6-oxo-7-oxa-2,5-diazaspiro[3.4]octane-2-carbonyl)-2-azaspiro[3.3]heptan-6-yl]methyl]-2-(trifluoromethyl)pyridine-3-carbonitrile] | 0.6
NC(=O)c1ccc(CC2CC3(C2)CN(C(=O)N2CC4(COC(=O)N4)C2)C3)cc1OC(F)(F)F [Example 244, 4-[[2-(6-oxo-7-oxa-2,5-diazaspiro[3.4]octane-2-carbonyl)-2-azaspiro[3.3]heptan-6-yl]methyl]-2-(trifluoromethoxy)benz-amide] | 0.94
NC(=O)c1cc(CC2CC3(C2)CN(C(=O)N2CC4(COC(=O)N4)C2)C3)ccc1OC(F)(F)F [Example 245, 5-[[2-(6-oxo-7-oxa-2,5-diazaspiro[3.4]octane-2-carbonyl)-2-azaspiro[3.3]heptan-6-yl]methyl]-2-(trifluoromethoxy)benz-amide] | 1.51
Cn1nc(C(F)(F)F)cc1CC1CC2(C1)CN(C(=O)N1CC3(CCC(=O)N3)C1)C2 [Example 246, 2-[6-[[2-methyl-5-(trifluoromethyl)pyrazol-3-yl]methyl]-2-azaspiro[3.3]heptane-2-carbonyl]-2,5-diazaspiro[3.4]octan-6-one] | 6.17
N#Cc1cnn(CC2CC3(C2)CN(C(=O)N2CC4(CCC(=O)N4)C2)C3)c1 [Example 247, 1-[[2-(6-oxo-2,5-diazaspiro[3.4]octane-2-carbonyl)-2-azaspiro[3.3]heptan-6-yl]methyl]pyrazole-4-carbonitrile] | 311
O=C1CCC2(CN(C(=O)N3CC4(CC(Cc5cnn(CC(F)(F)F)c5)C4)C3)C2)N1 [Example 248, 2-[6-[[1-(2,2,2-trifluoroethyl)pyrazol-4-yl]methyl]-2-azaspiro[3.3]heptane-2-carbonyl]-2,5-diazaspiro[3.4]octan-6-one] | 32.8
O=C1CCC2(CN(C(=O)N3CC4(CC(Cn5ccc(C(F)(F)F)cc5=O)C4)C3)C2)N1 [Example 249, 2-[6-[[2-oxo-4-(trifluoromethyl)-1-pyridyl]methyl]-2-azaspiro[3.3]heptane-2-carbonyl]-2,5-diazaspiro[3.4]octan-6-one] | 2.16
N#Cc1ccc(CC2CC3(C2)CN(C(=O)N2CC4(CCC(=O)N4)C2)C3)c(F)c1 [Example 251, 3-fluoro-4-[[2-(6-oxo-2,5-diazaspiro[3.4]octane-2-carbonyl)-2-azaspiro[3.3]heptan-6-yl]methyl]benzonitrile] | 0.6
O=C1CCC2(CN(C(=O)N3CC4(CC(Cc5cncc(S(=O)(=O)C(F)(F)F)c5)C4)C3)C2)N1 [Example 252, 2-[6-[[5-(trifluoromethylsulfonyl)-3-pyridyl]methyl]-2-azaspiro[3.3]heptane-2-carbonyl]-2,5-diazaspiro[3.4]octan-6-one] | 9.83
O=C1COCC2(CN(C(=O)N3CC4(CC(Cc5cncc(S(=O)(=O)C(F)(F)F)c5)C4)C3)C2)N1 [Example 253, 2-[6-[[5-(trifluoromethylsulfonyl)-3-pyridyl]methyl]-2-azaspiro[3.3]heptane-2-carbonyl]-8-oxa-2,5-diazaspiro[3.5]nonan-6-one] | 33.5
O=C1COCC2(CN(C(=O)N3CC4(CC(Cc5cc(F)cc(S(=O)(=O)C(F)(F)F)c5)C4)C3)C2)N1 [Example 254, 2-[6-[[3-fluoro-5-(trifluoromethylsulfonyl)phenyl]methyl]-2-azaspiro[3.3]heptane-2-carbonyl]-8-oxa-2,5-diazaspiro[3.5]nonan-6-one] | 4.84
CS(=N)(=O)c1cc(CC2CC3(C2)CN(C(=O)N2CC4(CCC(=O)N4)C2)C3)cc(C(F)(F)F)c1 (stereo not drawn) [Example 255, 2-[6-[[3-(methylsulfonimidoyl)-5-(trifluoromethyl)phenyl]methyl]-2-azaspiro[3.3]heptane-2-carbonyl]-2,5-diazaspiro[3.4]octan-6-one] | 4.19
O=C1CCC2(CN(C(=O)N3CC4(CCN(Cc5cccc(S(=O)(=O)C(F)(F)F)c5)C4)C3)C2)N1 [Example 256, 2-[7-[[3-(trifluoromethylsulfonyl)phenyl]methyl]-2,7-diazaspiro[3.4]octane-2-carbonyl]-2,5-diazaspiro[3.4]octan-6-one] | 26.9
O=C1CCC2(CN(C(=O)N3CC4(CC(Cc5cc(C(F)F)[nH]n5)C4)C3)C2)N1 [Example 257, 2-[6-[[5-(difluoromethyl)-1H-pyrazol-3-yl]methyl]-2-azaspiro[3.4]heptane-2-carbonyl]-2,5-diazaspiro[3.4]octan-6-one] | 16.5
O=C1CCC2(CN(C(=O)N3CC4(CN(Cc5ccc(S(=O)(=O)C(F)(F)F)cc5F)C4)C3)C2)N1 [Example 258, 2-[6-[[2-fluoro-4-(trifluoromethylsulfonyl)phenyl]methyl]-2,6-diazaspiro[3.4]heptane-2-carbonyl]-2,5-diazaspiro[3.4]octan-6-one] | 18.6
O=C1CCC2(CN(C(=O)N3CC4(CC(Cn5cc(C(F)(F)F)ccc5=O)C4)C3)C2)N1 [Example 259, 2-[6-[[2-oxo-5-(trifluoromethyl)-1-pyridyl]methyl]-2-azaspiro[3.3]heptane-2-carbonyl]-2,5-diazaspiro[3.4]octan-6-one] | 25.9
O=C1COCC2(CN(C(=O)N3CC4(CCN(Cc5cccc(S(=O)(=O)C(F)(F)F)c5)C4)C3)C2)N1 [Example 260, 2-[7-[[3-(trifluoromethylsulfonyl)phenyl]methyl]-2,7-diazaspiro[3.4]octane-2-carbonyl]-8-oxa-2,5-diazaspiro[3.5]nonan-6-one] | 80.7
N#Cc1ncc(CC2CC3(C2)CN(C(=O)N2CC4(COC(=O)N4)C2)C3)cc1C(F)(F)F [Example 261, 5-[[2-(6-oxo-7-oxa-2,5-diazaspiro[3.4]octane-2-carbonyl)-2-azaspiro[3.3]heptan-6-yl]methyl]-3-(trifluoromethyl)pyridine-2-carbonitrile] | 0.43
O=C1CCC2(CN(C(=O)N3CC4(CC(Cc5ccc(S(=O)(=O)C(F)(F)F)cn5)C4)C3)C2)N1 [Example 262, 2-[6-[[5-(trifluoromethylsulfonyl)-2-pyridyl]methyl]-2-azaspiro[3.3]heptane-2-carbonyl]-2,5-diazaspiro[3.4]octan-6-one] | 1.06
